# Data published in US10308686B2, “Gamma-AApeptides with potent and broad-spectrum antimicrobial activity” (priority 2012, dated 2019).
# Where two headings read alike, the source gives them in different places.
# Legend:
# [1] = tested on: K. pneumoniae (ATCC 13383)
# [2] = tested on: multi-drug resistant S. epidermidis (RP62A); details: for MIC, Gram positive S. epidermidis: Table 7
# [3] = tested on: human red blood cells (hRBC's); assay: Hemolysis assay; assay type: cell-based; details: for Hemolysis HC10 / Hemolysis HC50: red cells of human; for Hemolysis H10 / Hemolysis H50: Table 5; for Hemolysis H10: first value of H10/H50; for Hemolysis H50: second value of H10/H50
# Procedure: Freshly drawn human red blood cells (hRBC's) with additive K2 EDTA (spray-dried) were washed with PBS buffer several times and centrifuged at 1000 g for 10 min until a clear supernatant was observed. The hRBC's were resuspended in 1×PBS to get a 5% v/v suspension. Two-fold serial dilutions of γ-AApeptides dissolved in 1×PBS from 250 μg/ml through 1.6 μg/ml were added to a sterile 96-well plate to make up a total volume of 50 μL in each well. Then 50 μL of 5% v/v hRBC solution was added to make up a total volume of 100 μL in each well. The 0% hemolysis point and 100% hemolysis point were determined in 1×PBS and 0.2% Triton-X-100, respectively (Patch et al., 2003). The plate was then incubated at 37° C. for 1 h and centrifuged at 3500 rpm for 10 min. The supernatant (30 μL) was diluted with 100 μL of 1×PBS and absorption was detected by measuring the optical density at 360 nm by Biotek Synergy HT microtiter plate reader. % hemolysis was determined by the following equation: % hemolysis=(Abssample−AbsPBS)/(AbsTriton−AbsPBS)×100 H50 is the concentration of γ-AApeptide amphiphiles at which 50% hemolysis was observed. The highest concentration tested in the hemolytic assay was 500 μg/ml. 7. Fluorescence Microscopy
# The sequences shown in FIG. 12 were also evaluated via hemolytic assays. Freshly drawn human red blood cells (hRBC's) with additive K2 EDTA (spray-dried) were washed with PBS buffer several times and centrifuged at 1000 g for 10 min until a clear supernatant was observed. The hRBC's were resuspended in 1×PBS to get a 5% v/v suspension. Two-fold serial dilutions of lipidated γ-AApeptides dissolved in 1×PBS from 1 mg/ml through 6.3 μg/ml were added to sterile 96-well plates to make up a total volume of 50 μL in each well. Then 50 μL of 5% v/v hRBC solution was added to make up a total volume of 100 μL in each well. The 0% hemolysis point and 100% hemolysis point were determined in 1×PBS and 0.2% Triton-X-100, respectively (Patch et al., 2003). The plate was then incubated at 37° C. for 1 h and centrifuged at 3500 rpm for 10 min. The supernatant (30 μL) was diluted with 100 μL of 1×PBS and absorption was detected by measuring the optical density at 360 nm with a Biotek Synergy HT microtiter plate reader. % hemolysis was determined by the following equation: % hemolysis=(Abs sample−Abs PBS)/(Abs Triton−Abs PBS)×100
# [4] = tested on: methicillin-resistant S. aureus (ATCC 33592); details: for MIC, Gram positive S. aureus: Table 7
# [5] = tested on: vancomycin-resistant E. faecalis (ATCC 700802); details: for MIC, Gram positive E. faecalis: Table 7
# [6] = tested on: multi-drug resistant P. aeruginosa ATCC 27853; details: for MIC, Gram negative P. aeruginosa: ATCC 27853; for MIC, P. aeruginosa: Table 5
Structure (SMILES),"MIC, Gram negative K. pneumoniae [1]","MIC, Gram positive S. epidermidis [2]",Hemolysis HC10 [3],Hemolysis HC50 [3],"MIC, Gram positive B. subtilis (B. subtilis (BR151))","MIC, Gram positive S. aureus [4]","MIC, Gram positive E. faecalis [5]","MIC, Gram negative P. aeruginosa [6]","MIC, Gram negative E. coli (E. coli (JM109))","MIC, K. pneumoniae [1]","MIC, Fungus C. albicans (C. albicans (ATCC 10231); ATCC 10231)",Hemolysis H10 [3],Hemolysis H50 [3],"MIC, B. subtilis (B. subtilis (BR151))","MIC, P. aeruginosa [6]","MIC, S. epidermidis (MRSE) ([2]; multi-drug resistant (RP62A))","MIC, S. aureus (MRSA) ([4]; ATCC 33592)","MIC, E. faecalis (VREF) ([5]; ATCC 700802)",further results
CCCCCCCC/C=C\CCCCCCCC(=O)N[C@@H](C)CN(CC(=O)N[C@@H](C)CN(CC(=O)N[C@@H](CC(C)C)CN(CC(=O)N[C@@H](CC(C)C)CN(CC(=O)N[C@@H](CC(C)C)CN(CC(N)=O)C(=O)CCCN)C(=O)CCCN)C(=O)CCCN)C(C)=O)C(C)=O [Sequence 13],3 µg/mL,3 µg/mL,100 µg/mL,> 500 µg/mL,3 µg/mL,3 µg/mL,4 µg/mL,3 µg/mL,3 µg/mL,,,,,,,,,,"MIC, Fungi, C. albicans (C. albicans (ATCC 10231); ATCC 10231): 3 µg/mL"
NCCCC[C@H]1CN(C(=O)CCc2ccccc2)CC(=O)N[C@@H](CCCCN)CN(C(=O)CCc2ccccc2)CC(=O)N[C@@H](CCCCN)CN(C(=O)CCc2ccccc2)CC(=O)N[C@@H](CCCCN)CN(C(=O)CCc2ccccc2)CC(=O)N[C@@H](Cc2ccccc2)CN(CC(N)=O)C(=O)CCC(=O)N1 [HW-B-3],,,,,,,,,,> 50 µg/mL,> 50 µg/mL,> 500 µg/mL,> 500 µg/mL,25000 to 50000 µg/mL,> 50 µg/mL,,,,"MIC, S. epidermidis (MRSE) ([2]; Table 5): > 50 µg/mL; MIC, S. aureus (MRSA) ([4]; Table 5): > 50 µg/mL; MIC, E. faecalis (VREF) ([5]; Table 5): > 50 µg/mL"
CC(C)CCC(=O)N1CC(=O)N[C@@H](Cc2ccccc2)CN(C(=O)CCC(C)C)CC(=O)N[C@@H](Cc2ccccc2)CN(C(=O)CCC(C)C)CC(=O)N[C@@H](CCCCN)CN(C(=O)CCc2ccccc2)CC(=O)N[C@@H](CCCCN)CN(C(=O)CCc2ccccc2)CC(=O)N[C@@H](CCCCN)CN(C(=O)CCc2ccccc2)CC(=O)N[C@@H](Cc2ccccc2)CN(CC(N)=O)C(=O)CCC(=O)N[C@@H](Cc2ccccc2)C1 [HW-B-14],,,,,,,,,,10 µg/mL,4 µg/mL,45 µg/mL,300 µg/mL,,,2 µg/mL,3 µg/mL,5 µg/mL,
CC(C)CCC(=O)N1CC(=O)N[C@@H](CCCCN)CN(C(=O)CCc2ccccc2)CC(=O)N[C@@H](CCCCN)CN(C(=O)CCc2ccccc2)CC(=O)N[C@@H](Cc2ccccc2)CN(CC(N)=O)C(=O)CCC(=O)N[C@@H](CCCCN)CN(C(=O)CCc2ccccc2)CC(=O)N[C@@H](CCCCN)CN(C(=O)CCc2ccccc2)CC(=O)N[C@@H](CCCCN)CN(C(=O)CCc2ccccc2)CC(=O)N[C@@H](Cc2ccccc2)C1 [HW-B-11],,,,,,,,,,20 µg/mL,,200 µg/mL,> 500 µg/mL,,10 µg/mL,2 µg/mL,5 µg/mL,15 µg/mL,"MIC, Fungus C. albicans (C. albicans (ATCC 10231); Table 5): 5 µg/mL"
CCCCCCCCCCCCCCCC(=O)N[C@@H](C)CN(CC(=O)N[C@@H](C)CN(CC(=O)N[C@@H](CC(C)C)CN(CC(=O)N[C@@H](CC(C)C)CN(CC(=O)N[C@@H](CC(C)C)CN(CC(N)=O)C(=O)CCCN)C(=O)CCCN)C(=O)CCCN)C(C)=O)C(C)=O [Sequence 6],5 µg/mL,4 µg/mL,60 µg/mL,> 500 µg/mL,2.5 µg/mL,4 µg/mL,5 µg/mL,5 µg/mL,2.5 µg/mL,,,,,,,,,,
NCCCC[C@H](N)CN(CC(=O)N[C@@H](CCCCN)CN(CC(=O)N[C@@H](CCCCN)CN(CC(N)=O)C(=O)CCc1ccccc1)C(=O)CCc1ccccc1)C(=O)CCc1ccccc1 [γ1],,,,,,,,,,,,,,>100 µg/mL,,,,,"MIC, K. pneumoniae (causing pneumonia) [1]: >100 µg/mL; MIC, S. epidermidis (multi-drug resistant) ([2]; Table 1): >100 µg/mL; MIC, S. aureus (methicillin-resistant) ([4]; Table 1): >100 µg/mL; MIC, E. faecalis (vancomycin-resistant) ([5]; Table 1): >100 µg/mL; MIC, E. coli (E. coli (JM109)): >100 µg/mL"
